This passage reports IC50 results from patent publication US8835472B2, “Compounds, pharmaceutical compositions and uses thereof” (Boehringer Ingelheim International GmbH, priority 2010, dated 2014).

Sequence of human ACC2 (O00763 129-2458): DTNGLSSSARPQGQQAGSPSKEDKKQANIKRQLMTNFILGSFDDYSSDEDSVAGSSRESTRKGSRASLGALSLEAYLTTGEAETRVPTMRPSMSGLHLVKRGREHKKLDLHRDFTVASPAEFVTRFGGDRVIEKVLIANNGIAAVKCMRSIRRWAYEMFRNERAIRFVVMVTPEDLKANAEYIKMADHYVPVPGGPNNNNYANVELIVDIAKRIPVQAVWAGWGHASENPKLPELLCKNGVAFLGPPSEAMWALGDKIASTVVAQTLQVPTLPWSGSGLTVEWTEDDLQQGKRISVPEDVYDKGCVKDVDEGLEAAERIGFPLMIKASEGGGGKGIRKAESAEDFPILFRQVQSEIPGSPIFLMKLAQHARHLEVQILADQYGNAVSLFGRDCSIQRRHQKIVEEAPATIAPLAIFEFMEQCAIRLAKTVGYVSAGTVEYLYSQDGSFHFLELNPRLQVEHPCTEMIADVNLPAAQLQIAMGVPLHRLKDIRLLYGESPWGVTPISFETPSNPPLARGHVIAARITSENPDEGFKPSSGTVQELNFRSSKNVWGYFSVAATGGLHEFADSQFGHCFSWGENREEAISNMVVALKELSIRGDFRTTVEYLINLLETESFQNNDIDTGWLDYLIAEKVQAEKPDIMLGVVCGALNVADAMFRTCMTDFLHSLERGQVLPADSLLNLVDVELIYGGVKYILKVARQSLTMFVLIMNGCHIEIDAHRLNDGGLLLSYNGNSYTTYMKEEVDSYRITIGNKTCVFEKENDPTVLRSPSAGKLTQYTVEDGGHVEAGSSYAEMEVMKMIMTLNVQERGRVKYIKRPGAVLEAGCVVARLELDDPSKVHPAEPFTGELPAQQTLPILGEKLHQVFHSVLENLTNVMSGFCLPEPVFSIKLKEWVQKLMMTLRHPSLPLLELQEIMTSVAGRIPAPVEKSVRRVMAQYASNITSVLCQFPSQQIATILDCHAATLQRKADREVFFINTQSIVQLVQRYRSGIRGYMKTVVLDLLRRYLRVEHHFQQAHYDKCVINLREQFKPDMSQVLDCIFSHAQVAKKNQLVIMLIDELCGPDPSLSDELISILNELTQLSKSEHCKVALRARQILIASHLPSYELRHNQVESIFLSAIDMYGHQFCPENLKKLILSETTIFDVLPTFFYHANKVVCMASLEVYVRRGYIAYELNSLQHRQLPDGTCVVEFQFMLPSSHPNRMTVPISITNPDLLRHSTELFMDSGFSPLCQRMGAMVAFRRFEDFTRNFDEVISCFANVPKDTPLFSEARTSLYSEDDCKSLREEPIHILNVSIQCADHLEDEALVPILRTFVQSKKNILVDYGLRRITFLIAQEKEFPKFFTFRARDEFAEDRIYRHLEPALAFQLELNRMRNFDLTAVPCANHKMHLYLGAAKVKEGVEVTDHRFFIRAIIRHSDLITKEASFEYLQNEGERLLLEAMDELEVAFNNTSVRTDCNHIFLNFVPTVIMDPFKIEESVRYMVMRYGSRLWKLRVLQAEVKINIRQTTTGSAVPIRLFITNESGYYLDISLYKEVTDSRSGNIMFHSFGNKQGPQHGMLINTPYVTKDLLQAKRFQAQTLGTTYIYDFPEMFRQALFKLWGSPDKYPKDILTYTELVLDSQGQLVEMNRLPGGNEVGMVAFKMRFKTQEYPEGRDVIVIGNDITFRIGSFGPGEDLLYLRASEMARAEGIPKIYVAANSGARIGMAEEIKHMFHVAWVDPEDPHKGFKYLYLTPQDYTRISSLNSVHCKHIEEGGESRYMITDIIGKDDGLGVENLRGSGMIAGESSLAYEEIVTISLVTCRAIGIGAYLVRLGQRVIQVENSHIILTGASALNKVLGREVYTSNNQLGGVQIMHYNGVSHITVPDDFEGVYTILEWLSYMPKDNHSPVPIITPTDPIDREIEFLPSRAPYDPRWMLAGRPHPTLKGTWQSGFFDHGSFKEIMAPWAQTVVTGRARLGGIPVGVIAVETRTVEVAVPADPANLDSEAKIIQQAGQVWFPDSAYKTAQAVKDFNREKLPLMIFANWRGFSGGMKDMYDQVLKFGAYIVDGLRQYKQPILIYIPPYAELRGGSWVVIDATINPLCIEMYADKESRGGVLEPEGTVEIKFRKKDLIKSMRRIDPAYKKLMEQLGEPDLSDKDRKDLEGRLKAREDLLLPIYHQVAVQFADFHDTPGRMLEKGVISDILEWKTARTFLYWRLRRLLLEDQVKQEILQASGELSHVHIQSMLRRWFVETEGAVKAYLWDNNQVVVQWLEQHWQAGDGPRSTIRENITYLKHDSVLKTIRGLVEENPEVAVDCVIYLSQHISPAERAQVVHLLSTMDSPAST

The target of the assay is human ACC2 (Homo sapiens (Human), UniProt O00763). Briefly: ACC2 assay, spectrophotometric 384 well assay (NADH-linked, coupled lactate dehydrogenase/pyruvate kinase reaction). Format: biochemical. The note with it: hACC2 construct lacking the 128 N-terminal amino acids; 25° C., 340 nm over 15 minutes. On the procedure:
Spectrophotometric 384 Well Assay
Malonyl CoA formation by acetyl CoA carboxylases is stoichometrically linked to the consumption of ATP. ACC2 activity is measured in a NADH-linked kinetic method measuring ADP generated during the ACC reaction using a coupled lactate dehydrogenase/pyruvate kinase reaction.
For biological testing, a human ACC2 construct which lacks the 128 amino acids at the N-terminus for increased solubility (nt 385-6966 in Genbank entry AJ575592) is cloned. The protein is then expressed in insect cells using a baculoviral expression system. Protein purification is performed by anion exchange.
All compounds are dissolved in dimethyl sulfoxide (DMSO) to a concentration of 10 mM.
Assay reactions are then carried out in 384-well plates, with hACC2 in an appropriate dilution and at final assay concentrations (f.c.) of 100 mM Tris (pH 7.5), 10 mM trisodium citrate, 25 mM KHCO3, 10 mM MgCl2, 0.5 mg/mL BSA, 3.75 mM reduced L-glutathione, 15 U/mL lactate dehydrogenase, 0.5 mM phosphoenolpyruvate, 15 U/mL pyruvate kinase, compounds at different concentrations at final DMSO concentrations of 1%.
The enzymatic reaction is then started by addition of a mixture of NADH, acetyl Coenzyme A (both 200 μM f.c.) and ATP (500 uM f.c.). The decrease of the optical density (slope S) is then determined at 25° C. at a wavelength of 340 nm over 15 minutes in a spectrophotometric reader.
Each assay microtiter plate contains wells with vehicle instead of compound as controls for the non-inhibited enzyme (100% CTL; ‘HIGH’) and wells without acetyl-CoA as controls for non-specific NADH degradation (0% CTL; ‘LOW’).
The slope S is used for calculation of % CTL=(S(compound)−S(‘LOW’))/(S(‘HIGH’)−S(‘LOW’))*100. Compounds will give values between 100% CTL (no inhibition) and 0% CTL (complete inhibition).
For IC50 value determination, the sample slope in the presence of the test compound after subtraction of the low controls (S(compound)−S(‘LOW’)) are used. An IC50 value is derived from the compound slopes at different dosages after subtraction of the low controls (S(compound)−S(‘LOW’)) by non-linear regression curve fitting (equation y=(A+((B−A)/(1+((C/x)^D))))).
Broadly, the IC50 is the concentration at which inhibition is half-maximal. Read a low IC50 as greater potency. Turning to `CCOc1cc(C#Cc2ccc(C[C@H](C)NC(C)=O)cc2)ccn1` (stereo in doubt) [Example 23.1, N-{2-[4-(2-Ethoxy-pyridin-4-ylethynyl)-phenyl]-1-methyl-ethyl}-acetamide], the IC50 is 0.23 µM.
As to `CCC(C)Nc1ncc(C#Cc2ccc(CC(C)NC(C)=O)cc2)cn1` (stereo not shown) [15.1], the IC50 came to 0.16 µM. This IC50 and that of the molecule before are within 1.5-fold of each other.
`CCOc1cc(C#Cc2ccc(CC(C)NC(C)=O)cc2)ncn1` (stereo not shown) [17.1]: half-maximal inhibition (IC50) was put at 1.9 µM. Against the preceding molecule, the IC50 is about 12-fold higher.
`CCOc1ccc(C#Cc2ccc(CC(C)N3CC(C)(C)C3=O)cc2)cc1` (stereo not shown) [19.1] returned an IC50 of 1.8 µM. This IC50 and that of the molecule before are within 1.5-fold of each other.
Next, `CC(=O)NC(C)Cc1ccc(C#Cc2ccc(-c3ccccc3)cc2)cc1` (stereo not shown) [21.1]: 0.13 µM; `COc1ccc(C#Cc2ccc(CC(C)NC(C)=O)cc2)cc1OC` (stereo not shown) [22.1]: 1.6 µM.
For `CC(=O)NC(C)Cc1ccc(C#Cc2ccc(C(C)(C)C)cc2)cc1` (stereo not shown) [25.1], the midpoint of inhibition, the IC50, lay at 0.14 µM.
`CCOc1ccc(C#Cc2ccc(CCNC(C)=O)nc2)cc1` [26.1] yielded an IC50 of 7.2 µM.
In the case of `C[C@H](NC(=O)C1CC1)c1ccc(I)cc1` [28.1], the IC50 came out at 24.4 µM. This IC50 lies about 3.4-fold higher than the previous one.
For the molecule `CC(=O)NC(C)Cc1ccc(C#Cc2ccnc(N(C)C3CCCC3)n2)cc1` (stereo not shown) [30.1], the IC50 worked out at 0.33 µM.
`CC(Cc1ccc(C#Cc2cnc(OC3CCC3)nc2)cc1)NC(=O)c1cncs1` (stereo not shown) [34.1] returned an IC50 of 0.17 µM.
On to `CC(=O)NC(C)Cc1ccc(C#Cc2ccc(Cl)cc2)cc1` (stereo not shown) [Example 1.1, N-(1-(4-((4-Chlorophenyl)ethynyl)phenyl)propan-2-yl)acetamide], for which the midpoint of inhibition, the IC50, lay at 0.53 µM.
The value for `CC(=O)NC(C)Cc1ccc(C#Cc2ccc(C)cc2)cc1` (stereo not shown) [Example 1.2] was 0.81 µM; that for `CC(=O)NC(C)Cc1ccc(C#Cc2ccc(-c3ccc(Cl)cc3)nn2)cc1` (stereo not shown) [Example 1.3] was 0.69 µM.
Next, `CC(=O)NC(C)Cc1ccc(C#Cc2cccc3ccccc23)cc1` (stereo not shown) [Example 1.4]: 2 µM; `CC(=O)NC(C)Cc1ccc(C#Cc2ccc(C(=O)O)cc2)cc1` (stereo not shown) [Example 1.5]: 2.4 µM; `CC(=O)NC(C)Cc1ccc(C#Cc2ccc3ccccc3c2)cc1` (stereo not shown) [Example 1.6]: 0.88 µM.
With `CC(=O)NC(C)Cc1ccc(C#Cc2cccc(OC(F)F)c2)cc1` (stereo not shown) [Example 1.7], the IC50 is 4.9 µM.
Consider `CC(=O)NC(C)Cc1ccc(C#Cc2ccc(Oc3ccccc3)nc2)cc1` (stereo not shown) [Example 1.8], for which the midpoint of inhibition, the IC50, lay at 0.2 µM.
Next, `CC(=O)NC(C)Cc1ccc(C#Cc2cccc(C(=O)N3CCN(C(C)C)CC3)c2)cc1` (stereo not shown) [Example 1.9]: 8.4 µM; `CC(=O)NC(C)Cc1ccc(C#Cc2ccc(C(=O)N3CCOCC3)cc2)cc1` (stereo not shown) [Example 1.10]: 5.5 µM; `CC(=O)NC(C)Cc1ccc(C#Cc2ccc(C(=O)NCC(F)(F)F)cc2)cc1` (stereo not shown) [Example 1.11]: 1.7 µM.
The value for `CC(=O)NC(C)Cc1ccc(C#Cc2ccc(C(=O)NCc3ccccc3)cc2)cc1` (stereo not shown) [Example 1.12] was 2.3 µM; that for `COc1ccc(-c2cnc(C#Cc3ccc(CC(C)NC(C)=O)cc3)cn2)cc1` (stereo not shown) [Example 1.13] was 1.1 µM; that for `CC(=O)NC(C)Cc1ccc(C#Cc2cnc(-c3ccc(Cl)cc3)cn2)cc1` (stereo not shown) [Example 1.14] was 0.2 µM.
The value for `CC(=O)NC(C)Cc1ccc(C#Cc2ccc(-c3ccc(F)cc3)cn2)cc1` (stereo not shown) [Example 1.16] was 0.12 µM; that for `CC(=O)NC(C)Cc1ccc(C#Cc2ccc(-c3ccc(C)cc3)cn2)cc1` (stereo not shown) [Example 1.17] was 0.39 µM; that for `CC(=O)NC(C)Cc1ccc(C#Cc2ccc(C(=O)N3CCCC3)c(C)c2)cc1` (stereo not shown) [Example 1.18] was 0.99 µM.
For the molecule `CC(=O)NC(C)Cc1ccc(C#Cc2ccc(N(C)C)cc2)cc1` (stereo not shown) [Example 1.19], the IC50 amounted to 1.5 µM.
In turn, `CC(=O)NC(C)Cc1ccc(C#Cc2ccc(OC(C)C)cn2)cc1` (stereo not shown) [Example 1.20] had an IC50 of 0.61 µM. Against the preceding molecule, the IC50 is about 2.5-fold lower.
Molecule `CCc1ccc(C#Cc2ccc(CC(C)NC(C)=O)cc2)cc1` (stereo not shown) [Example 1.21] displayed a concentration for half-maximal inhibition (IC50) of 0.4 µM.
Next, `CC(=O)NC(C)Cc1ccc(C#Cc2ccc(C(C)C)cc2)cc1` (stereo not shown) [Example 1.22]: 0.29 µM.
Molecule `CC(=O)NC(C)Cc1ccc(C#Cc2cccc(C(C)=O)c2)cc1` (stereo not shown) [Example 1.23] returned an IC50 of 1 µM. Against the preceding molecule, the IC50 is about 3.4-fold higher.
Next, `CC(=O)NC(C)Cc1ccc(C#Cc2ccc(Br)cc2F)cc1` (stereo not shown) [Example 1.24]: 1.1 µM.
Consider `CC(=O)NC(C)Cc1ccc(C#Cc2ccc3c(ccn3CCO)c2)cc1` (stereo not shown) [Example 1.25], for which the IC50 was found to be 5.1 µM.
Take `COc1ccc(C#Cc2ccc(CC(C)NC(C)=O)cc2)c(C)c1` (stereo not shown) [Example 1.26]: the IC50 was 0.32 µM.
On to `CC(=O)NC(C)Cc1ccc(C#Cc2cccc(OC(C)C)c2)cc1` (stereo not shown) [Example 1.27], for which the IC50 worked out at 0.55 µM.
Take `CCOc1ccc(C#Cc2ccc(CC(C)NC(C)=O)cc2)cc1` (stereo not shown) [Example 1.28, N-{2-[4-(4-ethoxy-phenylethynyl)-phenyl]-1-methyl-ethyl}-acetamide]: inhibition was half-maximal at 0.12 µM (IC50).
On to `CC(=O)NC(C)Cc1ccc(C#Cc2ccc(OC(C)C)cc2)cc1` (stereo not shown) [Example 1.29], for which the midpoint of inhibition, the IC50, lay at 0.25 µM.
`COc1ccc(C#Cc2ccc(C(C)NC(C)=O)cc2)c(C)c1` (stereo not shown) [Example 1.30] displayed an IC50 of 2.1 µM. This IC50 lies about 8.4-fold higher than the previous one.
`CC(Cc1ccc(C#Cc2ccc(-c3ccc(F)cc3)cn2)cc1)NC(=O)C1CC1` (stereo not shown) [Example 1.31] yielded an IC50 of 0.45 µM.
As for `CC(=O)NC(C)Cc1ccc(C#Cc2cccc(C(=O)N3CCOCC3)c2)cc1` (stereo not shown) [Example 1.32], the IC50 came to 16.9 µM.
`CC(=O)NC(C)Cc1ccc(C#Cc2ccc(-n3cccc3)cc2)cc1` (stereo not shown) [Example 2.1, N-(1-(4-((4-(1H-Pyrrol-1-yl)phenyl)ethynyl)phenyl)propan-2-yl)acetamide]: the 50% inhibitory concentration (IC50) stood at 0.46 µM.
The molecule `CCOC(=O)c1cccc(C#Cc2ccc(CC(C)NC(C)=O)cc2)c1` (stereo not shown) [Example 2.2] gave an IC50 of 0.39 µM.
The molecule `CC(=O)NC(C)Cc1ccc(C#Cc2ccc(C(F)(F)F)cc2Cl)cc1` (stereo not shown) [Example 2.3] showed an IC50 of 1.4 µM.
`CC(=O)NC(C)Cc1ccc(C#Cc2cccc3ncccc23)cc1` (stereo not shown) [Example 2.4] gave an IC50 of 3.3 µM.
Molecule `CC(=O)NC(C)Cc1ccc(C#Cc2ccc(OCC3(N)CC3)c(C)c2)cc1` (stereo not shown) [Example 2.5] returned a concentration for half-maximal inhibition (IC50) of 0.82 µM. This IC50 is about 4-fold lower than that of the molecule before.
In turn, `CC(=O)NC(C)Cc1ccc(C#Cc2ccc(N3CCCCC3=O)cc2)cc1` (stereo not shown) [Example 2.6] yielded a half-maximal inhibitory concentration (IC50) of 1.4 µM.
For the molecule `CC(=O)NC(C)Cc1ccc(C#Cc2ccc(OC(F)F)cc2)cc1` (stereo not shown) [Example 2.7], the IC50 amounted to 0.76 µM.
Next, `CC(=O)NC(C)Cc1ccc(C#Cc2ccc3c(c2)CCO3)cc1` (stereo not shown) [Example 2.8]: 0.73 µM.
For the molecule `COc1ncc(C#Cc2ccc(CC(C)NC(C)=O)cc2)c(OC)n1` (stereo not shown) [Example 2.9], the IC50 amounted to 1.5 µM.
For `CC(=O)NC(C)Cc1ccc(C#Cc2ccc(OC(F)(F)F)cc2C#N)cc1` (stereo not shown) [Example 2.10], the IC50 turned out to be 7.5 µM. Compared with the last molecule, the IC50 is about 5-fold higher.
Next, `CC(=O)NC(C)Cc1ccc(C#Cc2ccc(C(C)(C)C)cc2C#N)cc1` (stereo not shown) [Example 2.11]: 0.27 µM; `CC(=O)NC(C)Cc1ccc(C#Cc2ccc(CN3CCCC3)cc2)cc1` (stereo not shown) [Example 2.12]: 6.7 µM.
Consider `COc1ncccc1C#Cc1ccc(CC(C)NC(C)=O)cc1` (stereo not shown) [Example 2.13], for which 5.3 µM corresponded to half-maximal inhibition (IC50).
Molecule `CCCOc1cc(C#Cc2ccc(CC(C)NC(C)=O)cc2)ccn1` (stereo not shown) [Example 2.14] gave an IC50 of 0.13 µM.
`CC(=O)NC(C)Cc1ccc(C#Cc2ccc(Br)cc2)cc1` (stereo not shown) [Example 2.15] gave an IC50 of 0.56 µM.
Molecule `CC(=O)NC(C)Cc1ccc(C#Cc2ccc(Oc3ccccc3)cc2)cc1` (stereo not shown) [Example 2.16] registered an IC50 of 0.12 µM.
For `CC(=O)NC(C)Cc1ccc(C#Cc2ccc(OCC(C)C)cc2)cc1` (stereo not shown) [Example 2.17], 0.11 µM corresponded to half-maximal inhibition (IC50). The IC50 values of the last two molecules are within 1.5-fold of each other.
In turn, `CC(=O)NC(C)Cc1ccc(C#Cc2ccc(CCO)cc2)cc1` (stereo not shown) [Example 2.18] returned an IC50 of 2.2 µM.
Consider `CC(=O)NC(C)Cc1ccc(C#Cc2ccc(C(C)=O)cc2)cc1` (stereo not shown) [Example 2.19], for which the IC50 was 3.6 µM.
Molecule `CCCc1ccc(C#Cc2ccc(CC(C)NC(C)=O)cc2)cc1` (stereo not shown) [Example 2.20] came in with a concentration for half-maximal inhibition (IC50) of 0.3 µM.
Take `CC(=O)NC(C)Cc1ccc(C#Cc2ccc(OC(C)C)nc2)cc1` (stereo not shown) [Example 2.21]: the IC50 is 0.24 µM. The IC50 values of the last two molecules are within 1.5-fold of each other.
The value for `COc1ccc(C#Cc2ccc(CC(C)NC(C)=O)cc2)cn1` (stereo not shown) [Example 2.22] was 0.72 µM.
Molecule `CC(=O)NC(C)Cc1ccc(C#Cc2ccc(OCC3CC3)nc2)cc1` (stereo not shown) [Example 2.23] had an IC50 of 0.32 µM. Compared with the last molecule, the IC50 is about 2.2-fold lower.
For `COCCOc1ccc(C#Cc2ccc(CC(C)NC(C)=O)cc2)cn1` (stereo not shown) [Example 2.24], the IC50 came to 0.76 µM.
On to `CC(=O)NC(C)Cc1ccc(C#Cc2ccc(OC3CCCC3)nc2)cc1` (stereo not shown) [Example 2.25], for which half-maximal inhibition (IC50) was put at 0.17 µM.
